Results reported in PubChem BioAssay AID1963443 (Molecular Pharmacology Branch, DTP, NCI, 2024).

System: MDA-MB-231 complex spheroids, growth inhibition
Assay: Anticancer human tumor MDA-MB-231 cell line growth inhibition [Asc];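 further: spheroids exposed to compounds for 7 days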
Settings: for IC50: curve of first compound; for viability, T/C: stronger effect = lower value
Experimental: Multicellular complex tumor spheroid response to apoptosis pathway targeting inhibitors Alrizomadlin, Pelcitoclax, and Dasminapant in combination with a variety of drugs and investigational agents in selected tumor cell lines
The MDM2 inhibitor alrizomadlin, the Bcl-2/Bcl-xL inhibitor pelcitoclax, and the IAPs inhibitor dasminapant were evaluated both individually and in combination with standard of care and investigational anticancer small molecules within a complex spheroid model of solid tumors. . Complex spheroids include a stromal component modeled by human endothelial cells (HUVEC) and fibroblasts modeled by human mesenchymal stem cells (MSCs). The concentration ranges selected for each drug and investigational agent were based upon clinically achievable concentrations if the clinical Cmax of the agent was known.
Compounds. The drugs and investigational agents: alrizomadlin (APG-115; NSC831270), pelcitoclax (APG-1252; NSC835773), dasminapant (APG-1387;NSC834197), TAK-243 (NSC785004), copanlisib (NSC809693), olaparib (NSC753686), talazoparib (NSC767125), cobimetinib (NSC 768068), eltanexor (KPT-8602, NSC 794443), abemaciclib (NSC 768073), sotorasib (NSC818433), adagrasib (NSC 831453), MRTX-1133 (NSC 836407), Iadademestat (ORY1001, NSC 806812), and RMC-4630 (NSC839698), were obtained from the NCI Developmental Therapeutics Program Chemical Repository. The FDA-approved anticancer drug set is available from the Developmental Therapeutics Program at https://dtp.cancer.gov/organization/dscb/obtaining/available plates.htm. […] The stock solutions were prepared in dimethyl sulfoxide (DMSO, Sigma-Aldrich, St. Louis, MO, cat. D2650) at 800-fold the tested concentration and stored at -70 degrees C prior to their use. All drugs and investigational agents were tested over a range starting from a high concentration at or near the clinical Cmax and decreasing in half-log increments. If the clinical Cmax for an agent had not been determined, the highest concentration tested was 10 microM.
The patient-derived cancer (PDC) cell lines include five colon adenocarcinomas: 186277-243-T-J2-PDC, 616215-338-R-J1-PDC, 439559-082-T-J2-PDC, 463943-066-T-J2-PDC, and 519858-162-T-J1-PDC; three pancreatic carcinomas: 323965-272-R-J2-PDC, 521955-158-R6-J3-PDC, and 521955-158-R2-J5-PDC; two uterine sarcomas: 327498-152-R-J2-PDC and 993429-296-R-J1-PDC; two rhabdomyosarcomas: 755483-174-R-J1-PDC and 772245-204-R-J1-PDC; two soft tissue sarcomas: 126254-015-R-J1-PDC and 494315-158-R-J1-PDC; two malignant fibrous histiocytomas: 317291-083-R-J1-PDC and 596521-263-R-J1-PDC; two breast carcinomas: 171881-019-R-J1-PDC and 885512-296-R-J2-PDC; and one ovarian carcinoma: 6556581-035-R-J-PDC were obtained from the NCI PDMR, (https://pdmr.cancer.gov). The established cell lines HSSY-2 synovial sarcoma (RRID:CVCL 8719), SYO-1 synovial sarcoma (RRID:CVCL_7146), MPNST malignant peripheral neural sheath tumor were obtained from the Sloan Kettering Institute. The following established cell lines were purchased from the American Type Culture Collection (ATCC, Manassas, VA), Sor the received from the NCI repository:, PANC-1 pancreatic carcinoma (CRL-1469, RRID:CVCL_0480), OVCAR-5 ovarian carcinoma (RRID:CVCL_1628), OVCAR-8 ovarian carcinoma (RRID:CVCL_1629), , MCF-7 breast carcinoma (CRL-12584, RRID:CVCL_0031), MDA-MB-231 breast carcinoma (CRL-12532, RRID:CVCL_0062), NCI-H1876 small cell lung carcinoma (CRL-5902, RRID:CVCL_1503), NCI-H510A small cell lung carcinoma (HTB-184, RRID:CVCL_1565), NCI-H1417 (CRL-5869, RRID:CVCL_1469), and NCI-H196 small cell lung carcinoma (CRL-5823, RRID:CVCL_1509). Dr. Peter Houghton (Greehey Children's Cancer Research Institute, University of Texas Health Science Center, San Antonio, TX) provided Rh-18 rhabdomyosarcoma (RRID:CVCL_1659). Pooled donor human umbilical vein endothelial cells (HUVEC, Lonza, cat. CC-2519) and human mesenchymal stem cells (hMSC, Lonza, cat. PT-2501) were purchased from Lonza (Walkersville, MD).
Cell Culture. […]

- IC50 (second compound 0.03 µM): 81.4 nM
- IC50 (second compound 0.0949 µM): 79.3 nM
- IC50 (second compound 0.3 µM): 86.9 nM
- IC50 (second compound 0.949 µM): 90.8 nM
- IC50 (second compound 3 µM): 31.4 nM
SMILES: COc1c(OCCCN2CCOCC2)ccc2c3n(c(=NC(=O)c4cnc(N)nc4)nc12)CCN3 + CCN1C(C(=O)NC23CCC(C(=O)O)(CC2)CC3)C(c2cccc(Cl)c2F)C2(C(=O)Nc3cc(Cl)ccc32)C12CCCCC2
- viability, T/C (second compound 0.03 µM, first compound 0.00316 µM): 87.7%
- viability, T/C (second compound 0.03 µM, first compound 0.01 µM): 81.5%
- viability, T/C (second compound 0.03 µM, first compound 0.0316 µM): 61.5%
- viability, T/C (second compound 0.03 µM, first compound 0.1 µM): 49.7%
- viability, T/C (second compound 0.03 µM, first compound 0.316 µM): 34.6%
- viability, T/C (second compound 0.03 µM, first compound 1 µM): 33.8%
- viability, T/C (second compound 0.0949 µM, first compound 0.00316 µM): 102%
- viability, T/C (second compound 0.0949 µM, first compound 0.01 µM): 78.7%
- viability, T/C (second compound 0.0949 µM, first compound 0.0316 µM): 63.4%
- viability, T/C (second compound 0.0949 µM, first compound 0.1 µM): 47.8%
- viability, T/C (second compound 0.0949 µM, first compound 0.316 µM): 34.3%
- viability, T/C (second compound 0.0949 µM, first compound 1 µM): 32.3%
- viability, T/C (second compound 0.3 µM, first compound 0.00316 µM): 99.3%
- viability, T/C (second compound 0.3 µM, first compound 0.01 µM): 88.2%
- viability, T/C (second compound 0.3 µM, first compound 0.0316 µM): 65.2%
- viability, T/C (second compound 0.3 µM, first compound 0.1 µM): 49.9%
- viability, T/C (second compound 0.3 µM, first compound 0.316 µM): 34.7%
- viability, T/C (second compound 0.3 µM, first compound 1 µM): 33.5%
- viability, T/C (second compound 0.949 µM, first compound 0.00316 µM): 100%
- viability, T/C (second compound 0.949 µM, first compound 0.01 µM): 85.9%
- viability, T/C (second compound 0.949 µM, first compound 0.0316 µM): 66.4%
- viability, T/C (second compound 0.949 µM, first compound 0.1 µM): 49%
- viability, T/C (second compound 0.949 µM, first compound 0.316 µM): 37%
- viability, T/C (second compound 0.949 µM, first compound 1 µM): 34.1%
- viability, T/C (second compound 3 µM, first compound 0.00316 µM): 83.3%
- viability, T/C (second compound 3 µM, first compound 0.01 µM): 67.6%
- viability, T/C (second compound 3 µM, first compound 0.0316 µM): 50.1%
- viability, T/C (second compound 3 µM, first compound 0.1 µM): 39.3%
- viability, T/C (second compound 3 µM, first compound 0.316 µM): 31.2%
- viability, T/C (second compound 3 µM, first compound 1 µM): 34.1%
